From ChEMBL document CHEMBL3044646, “Management of tomato leaf mould caused by Cladosporium fulvum with trifloxystrobin” (2007) come the findings set out here.

Structures are written as SMILES.

What all share (type): functional
Test [1] relates to Fulvia fulva. As to the kind of experiment: Antifungal activity against Passalora fulva infected tomato cultivar Alma F1 plants grown in growth chamber assessed as reduction in lesions on leaf at 100 ug a.i./ml sprayed 96 hr post-inoculation measured after 22 days relative to control. On the set-up: scale not given: the % may be the effect or the level left.
For test [2], the system named is Fulvia fulva. As to the kind of experiment: Antifungal activity against Passalora fulva infected tomato cultivar Alma F1 plants grown in growth chamber assessed as reduction in lesions on leaf at 100 ug a.i./ml sprayed 24 hr post-inoculation measured after 22 days relative to control. On the set-up: scale not given: the % may be the effect or the level left.
Test [3] relates to Fulvia fulva. As to the kind of experiment: Antifungal activity against Passalora fulva infected tomato cultivar Alma F1 plants grown in growth chamber assessed as reduction in lesions on leaf at 100 ug a.i./ml sprayed 24 hr prior to inoculation measured after 22 days relative to control. On the set-up: scale not given: the % may be the effect or the level left.
In test [4] the test system is Fulvia fulva. As to the kind of experiment: Antifungal activity against Passalora fulva infected tomato cultivar Alma F1 plants grown in growth chamber assessed as reduction in lesions on leaf at 100 ug a.i./ml sprayed 96 hr prior to inoculation measured after 22 days relative to control. On the set-up: scale not given: the % may be the effect or the level left.
Test [5] deals with Fulvia fulva. As to the kind of experiment: Antifungal activity against Passalora fulva infected tomato cultivar Alma F1 plants grown in growth chamber assessed as inhibition of sporulation at 100 ug a.i./ml applied at 15 days post-inoculation after appearance of symptoms followed by incubation in growth chamber for 72 hr relative to control. On the set-up: scale not given: the % may be the effect or the level left.

For test [6], the system named is Fulvia fulva. As to the kind of experiment: Antifungal activity against Passalora fulva infected tomato cultivar Alma F1 plants grown in growth chamber assessed as reduction in lesions on leaf at 100 ug a.i./ml sprayed 48 hr prior to inoculation measured after 22 days relative to control. On the set-up: scale not given: the % may be the effect or the level left.

For test [7], the system named is Fulvia fulva. As to the kind of experiment: Antifungal activity against Passalora fulva infected tomato cultivar Alma F1 plants grown in growth chamber assessed as reduction in lesions on leaf at 100 ug a.i./ml sprayed 48 hr post-inoculation measured after 22 days relative to control. On the set-up: scale not given: the % may be the effect or the level left.
Test [8] has as its system Fulvia fulva. As to the kind of experiment: Antifungal activity against Passalora fulva infected tomato cultivar Alma F1 plants grown in growth chamber assessed as reduction in lesions on leaf at 5 ug a.i./ml sprayed 24 hr prior to inoculation measured after 22 days relative to control. On the set-up: scale not given: the % may be the effect or the level left.
Test [9] relates to Fulvia fulva. As to the kind of experiment: Antifungal activity against Passalora fulva infected tomato cultivar Alma F1 plants grown in growth chamber assessed as reduction in lesions on leaf at 10 ug a.i./ml sprayed 24 hr post-inoculation measured after 22 days relative to control. On the set-up: scale not given: the % may be the effect or the level left.
Test [10] relates to Fulvia fulva. As to the kind of experiment: Antifungal activity against Passalora fulva infected tomato cultivar Alma F1 plants grown in growth chamber assessed as reduction in lesions on leaf at 10 ug a.i./ml sprayed 48 hr post-inoculation measured after 22 days relative to control. On the set-up: scale not given: the % may be the effect or the level left.
Test [11] relates to Fulvia fulva. As to the kind of experiment: Antifungal activity against Passalora fulva infected tomato cultivar Alma F1 plants grown in growth chamber assessed as reduction in lesions on leaf at 20 ug a.i./ml sprayed 48 hr post-inoculation measured after 22 days relative to control. On the set-up: scale not given: the % may be the effect or the level left.
Test [12] concerns Fulvia fulva. As to the kind of experiment: Antifungal activity against Passalora fulva infected tomato cultivar Alma F1 plants grown in growth chamber assessed as inhibition of sporulation at 20 ug a.i./ml applied at 15 days post-inoculation after appearance of symptoms followed by incubation in growth chamber for 72 hr relative to control.
The subject of test [13] is Fulvia fulva. As to the kind of experiment: Antifungal activity against Passalora fulva infected tomato cultivar Alma F1 plants grown in growth chamber assessed as reduction in lesions on leaf at 5 ug a.i./ml sprayed 48 hr post-inoculation measured after 22 days relative to control. On the set-up: scale not given: the % may be the effect or the level left.
Test [14] deals with Fulvia fulva. As to the kind of experiment: Antifungal activity against Passalora fulva infected tomato cultivar Alma F1 plants grown in growth chamber assessed as reduction in lesions on leaf at 20 ug a.i./ml sprayed 24 hr prior to inoculation measured after 22 days relative to control. On the set-up: scale not given: the % may be the effect or the level left.
For test [15], the system named is Fulvia fulva. As to the kind of experiment: Antifungal activity against Passalora fulva infected tomato cultivar Alma F1 plants grown in growth chamber assessed as reduction in lesions on leaf at 10 ug a.i./ml sprayed 24 hr prior to inoculation measured after 22 days relative to control. On the set-up: scale not given: the % may be the effect or the level left.

The test system of test [16] is Fulvia fulva. As to the kind of experiment: Antifungal activity against Passalora fulva infected tomato cultivar Alma F1 plants grown in growth chamber assessed as inhibition of sporulation at 10 ug a.i./ml applied at 15 days post-inoculation after appearance of symptoms followed by incubation in growth chamber for 72 hr relative to control.
Test [17] relates to Fulvia fulva. As to the kind of experiment: Antifungal activity against Passalora fulva infected tomato cultivar Alma F1 plants grown in growth chamber assessed as reduction in lesions on leaf at 20 ug a.i./ml sprayed 24 hr post-inoculation measured after 22 days relative to control. On the set-up: scale not given: the % may be the effect or the level left.
The test system of test [18] is Fulvia fulva. As to the kind of experiment: Antifungal activity against Passalora fulva infected tomato cultivar Alma F1 plants grown in growth chamber assessed as inhibition of sporulation at 5 ug a.i./ml applied at 15 days post-inoculation after appearance of symptoms followed by incubation in growth chamber for 72 hr relative to control.
Test [19] has as its system Fulvia fulva. As to the kind of experiment: Antifungal activity against Passalora fulva infected tomato cultivar Alma F1 plants grown in growth chamber assessed as reduction in lesions on leaf at 20 ug a.i./ml sprayed 48 hr prior to inoculation measured after 22 days relative to control. On the set-up: scale not given: the % may be the effect or the level left.
Test [20] has as its system Fulvia fulva. As to the kind of experiment: Antifungal activity against Passalora fulva infected tomato cultivar Alma F1 plants grown in growth chamber assessed as reduction in lesions on leaf at 5 ug a.i./ml sprayed 96 hr prior to inoculation measured after 22 days relative to control. On the set-up: scale not given: the % may be the effect or the level left.
Test [21] deals with Fulvia fulva. As to the kind of experiment: Antifungal activity against Passalora fulva infected tomato cultivar Alma F1 plants grown in growth chamber assessed as reduction in lesions on leaf at 5 ug a.i./ml sprayed 96 hr post-inoculation measured after 22 days relative to control. On the set-up: scale not given: the % may be the effect or the level left.
Test [22] concerns Fulvia fulva. As to the kind of experiment: Antifungal activity against Passalora fulva infected tomato cultivar Alma F1 plants grown in growth chamber assessed as reduction in lesions on leaf at 5 ug a.i./ml sprayed 48 hr prior to inoculation measured after 22 days relative to control. On the set-up: scale not given: the % may be the effect or the level left.
Test [23] has as its system Fulvia fulva. As to the kind of experiment: Antifungal activity against Passalora fulva infected tomato cultivar Alma F1 plants grown in growth chamber assessed as reduction in lesions on leaf at 20 ug a.i./ml sprayed 96 hr post-inoculation measured after 22 days relative to control. On the set-up: scale not given: the % may be the effect or the level left.
Test [24] relates to Fulvia fulva. As to the kind of experiment: Antifungal activity against Passalora fulva infected tomato cultivar Alma F1 plants grown in growth chamber assessed as reduction in lesions on leaf at 20 ug a.i./ml sprayed 96 hr prior to inoculation measured after 22 days relative to control. On the set-up: scale not given: the % may be the effect or the level left.
The subject of test [25] is Fulvia fulva. As to the kind of experiment: Antifungal activity against Passalora fulva infected tomato cultivar Alma F1 plants grown in growth chamber assessed as reduction in lesions on leaf at 10 ug a.i./ml sprayed 96 hr post-inoculation measured after 22 days relative to control. On the set-up: scale not given: the % may be the effect or the level left.
In test [26] the test system is Fulvia fulva. As to the kind of experiment: Antifungal activity against Passalora fulva infected tomato cultivar Alma F1 plants grown in growth chamber assessed as reduction in lesions on leaf at 10 ug a.i./ml sprayed 96 hr prior to inoculation measured after 22 days relative to control. On the set-up: scale not given: the % may be the effect or the level left.
Test [27] has as its system Fulvia fulva. As to the kind of experiment: Antifungal activity against Passalora fulva infected tomato cultivar Alma F1 plants grown in growth chamber assessed as reduction in lesions on leaf at 5 ug a.i./ml sprayed 24 hr post-inoculation measured after 22 days relative to control. On the set-up: scale not given: the % may be the effect or the level left.
The subject of test [28] is Fulvia fulva. As to the kind of experiment: Antifungal activity against Passalora fulva infected tomato cultivar Alma F1 plants grown in growth chamber assessed as reduction in lesions on leaf at 10 ug a.i./ml sprayed 48 hr prior to inoculation measured after 22 days relative to control. On the set-up: scale not given: the % may be the effect or the level left.

With `N#Cc1c(Cl)c(Cl)c(Cl)c(C#N)c1Cl` [CHLOROTHALONIL], the Activity in [1] is 48.4%; in [2], 91%; in test [3], 96.5%; in [4], 84.4%; in test [5], 43.2%; in [6] it was 95.2%. Moreover, in test [7], the Activity worked out at 73.4%.
With `CO/N=C(\C(=O)OC)c1ccccc1CO/N=C(\C)c1cccc(C(F)(F)F)c1`, the Activity worked out at 88.2% in test [8]; 89% in test [9]; 76.1% in test [10]; 94.5% in test [11]; 60.9% in test [13]; 96.5% in test [14]. The Activity in [15] stood at 93.9%; in test [17], 93.3%; in [19] it was 96.5%; in test [20], 72.8%; in test [21], 45.7%; in [22] it was 85.3%. The Activity was determined as 66.7% in [23]; 94% in [24]; 60.1% in test [25]; 85.3% in test [26]; 69.9% in test [27]; 90.9% in test [28]. The figures for the “inhibition (INH)” value in test [12], in [16] and in [18] were 85.1%, 55.7% and 23.2%, respectively.
